In publication PMC6328429, “Synthesis of a benzoxazinthione derivative of tanaproget and pharmacological evaluation for PET imaging of PR expression” (EJNMMI Radiopharmacy and Chemistry, 2019):
Entries after “also recorded” stand apart in the source; their conditions may differ.

Target: T1, GR (Homo sapiens, UniProt P04150)
T1 construct: host or cells: CHO-K1 (Chinese hamster ovary) cells
T1 sequence (P04150 1-777): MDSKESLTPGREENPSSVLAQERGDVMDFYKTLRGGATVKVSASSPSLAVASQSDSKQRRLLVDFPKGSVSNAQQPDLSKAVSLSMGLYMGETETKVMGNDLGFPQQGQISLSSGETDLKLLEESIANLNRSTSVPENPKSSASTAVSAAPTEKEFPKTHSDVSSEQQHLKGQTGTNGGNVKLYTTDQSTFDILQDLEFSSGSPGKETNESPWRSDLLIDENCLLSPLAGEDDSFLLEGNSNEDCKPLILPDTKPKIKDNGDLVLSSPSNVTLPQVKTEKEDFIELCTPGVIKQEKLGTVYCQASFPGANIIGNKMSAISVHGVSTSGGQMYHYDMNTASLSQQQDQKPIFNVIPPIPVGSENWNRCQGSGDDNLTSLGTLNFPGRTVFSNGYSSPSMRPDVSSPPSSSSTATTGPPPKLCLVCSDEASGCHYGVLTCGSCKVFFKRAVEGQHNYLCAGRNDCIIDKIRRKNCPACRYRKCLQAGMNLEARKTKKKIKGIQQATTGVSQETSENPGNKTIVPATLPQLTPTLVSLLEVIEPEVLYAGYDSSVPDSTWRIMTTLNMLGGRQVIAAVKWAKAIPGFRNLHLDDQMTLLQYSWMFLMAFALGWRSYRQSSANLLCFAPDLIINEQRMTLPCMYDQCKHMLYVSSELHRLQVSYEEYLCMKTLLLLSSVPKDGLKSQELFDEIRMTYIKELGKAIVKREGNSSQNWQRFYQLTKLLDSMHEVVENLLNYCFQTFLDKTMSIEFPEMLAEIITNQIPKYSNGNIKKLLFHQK
Assay: PatHunter express CHO-K1 GR nuclear translocation assay
Type: cell-based
Details: CHO-K1 cells; 6 h; at 0.5 μM; dexamethasone positive control
Description: Compound 2 was analysed for GR binding using the PatHunter® express CHO-K1 GR Nuclear Translocation assay (DiscoveRx™, Fremont, CA, USA). Reagents were thawed and equilibrated to room temperature prior to use. Dexamethasone standard (10 mM, 100% DMSO) was diluted and used to prepare 12 standards by 1:4 dilution. Test compound 2 was dissolved in 100% DMSO and diluted in serial 1:3 dilutions to a final concentration of DMSO (v/v) of 0.1%. CHO-K1 (Chinese hamster ovary) cells were seeded in a 96-well plate with CP reagent and incubated for 24 h at 37 °C, 5% CO2. Cells were then incubated with the Dexamethasone standard and compound 2 for 6 h at 37 °C, 5% CO2. Following incubation, signal was detected using the PathHunter® detection reagent provided in the kit and incubated in the dark for 1 h. The plate was read using a luminescence plate reader (Additional file 1: Figure S33).

Compound: CC1(C)OC(=S)Nc2ccc(-c3cccnc3F)cc21 [Compound 2, 6-(2-fluoropyridin-3-yl)-4,4-dimethyl-1H-benzo[d][1,3]oxazine-2(4H)-thione]
- GR nuclear translocation response: poor binder; also recorded: failed to elicit a response
